The record followed here is the NIST ThermoML archive (doi:10.1016/j.jct.2008.12.018).

This data set can be described thus: activity coefficient (dimensionless); of the first substance listed, at infinite dilution; xn = mol fraction of the nth substance listed. Conditions: Liquid, Chromatography, x1 = 0.

Numbers after ± are expanded uncertainties.

`CCCCCCCC` [octane] + CCCCn1cc[n+](C)c1.N#C[S-]: the activity coefficient worked out at 350 ± 24 (298.15 K); 311 ± 21 (308.15 K); 279 ± 19 (318.15 K); 243 ± 17 (328.15 K); 218 ± 15 (338.15 K); 198 ± 14 (348.15 K). Besides, the activity coefficient (358.15 K) was 180 ± 12.

In the case of `CCCCCO` [pentan-1-ol] + CCCCn1cc[n+](C)c1.N#C[S-], the activity coefficient is, setting by setting: (318.15 K) 1.62 ± 0.11; (328.15 K) 1.54 ± 0.1; (338.15 K) 1.5 ± 0.1; (348.15 K) 1.47 ± 0.1; (358.15 K) 1.45 ± 0.1; (368.15 K) 1.44 ± 0.09.

As to `CCCO` [propan-1-ol] + CCCCn1cc[n+](C)c1.N#C[S-], the activity coefficient is, setting by setting: (308.15 K) 0.93 ± 0.06; (318.15 K) 0.9 ± 0.06; (328.15 K) 0.87 ± 0.06; (338.15 K) 0.84 ± 0.05; (348.15 K) 0.83 ± 0.05; (358.15 K) 0.81 ± 0.05. Besides, the activity coefficient (368.15 K) was determined as 0.8 ± 0.05.

For the compound `C1CCOC1` [tetrahydrofuran] + CCCCn1cc[n+](C)c1.N#C[S-], the activity coefficient by setting is: (298.15 K, 101 kPa) 2 ± 0.14; (308.15 K, 101 kPa) 1.98 ± 0.13; (318.15 K, 101 kPa) 1.99 ± 0.14; (328.15 K, 101 kPa) 1.99 ± 0.14; (338.15 K, 101 kPa) 1.99 ± 0.14; (348.15 K, 101 kPa) 1.99 ± 0.14. Moreover, the activity coefficient (358.15 K, 101 kPa) turned out to be 1.99 ± 0.14 and the activity coefficient (368.15 K, 101 kPa) turned out to be 2.01 ± 0.14.

In the case of `c1ccsc1` [thiophene] + CCCCn1cc[n+](C)c1.N#C[S-], the activity coefficient reads like this: (298.15 K) 1.21 ± 0.078; (308.15 K) 1.24 ± 0.08; (318.15 K) 1.26 ± 0.081; (328.15 K) 1.27 ± 0.082; (338.15 K) 1.29 ± 0.084; (348.15 K) 1.32 ± 0.085. Moreover, the activity coefficient is 1.33 ± 0.086 (358.15 K) and 1.36 ± 0.089 (368.15 K).

As for `Cc1ccccc1` [toluene] + CCCCn1cc[n+](C)c1.N#C[S-], the activity coefficient is 3.4 ± 0.23 (298.15 K); 3.48 ± 0.24 (308.15 K); 3.52 ± 0.24 (318.15 K); 3.53 ± 0.24 (328.15 K); 3.55 ± 0.24 (338.15 K); 3.59 ± 0.24 (348.15 K). Further, the activity coefficient runs as follows: (358.15 K) 3.62 ± 0.25; (368.15 K) 3.65 ± 0.25.

Regarding `O` [water] + CCCCn1cc[n+](C)c1.N#C[S-], the activity coefficient was 0.316 ± 0.035 (328.15 K); 0.316 ± 0.035 (338.15 K); 0.32 ± 0.035 (348.15 K); 0.323 ± 0.035 (358.15 K); 0.325 ± 0.035 (368.15 K).
